Measurements reported in patent publication US20050282755A1, “Compositions having antimicrobial activity and uses thereof” (priority 2004, published 2005).
Values after ≈ are worked out from the molar mass of the structure shown. Starred links: 1 amine or outer side, 2 acyl side, 3 side chain; linkers in the order of their positions; H or OH if unused. Non-standard residues stand in square brackets, D forms with d. Residues, ends and D or L forms follow the SMILES beside them. *: point of attachment. Ethylenediamine = C(CN[*:2])N[*:1]; Lauroyl = CCCCCCCCCCCC(=O)*; Decanoyl = CCCCCCCCCC(=O)*; Hexanoyl = CCCCCC(=O)*

Assays:
Assay type in all cases: cell-based
[1] = tested on: Candida albicans ATCC 18804; assay: MIC in yeasts, NCCLS M27-A2 broth microdilution, RPMI 1640 (Table 9, letter e); conditions: ATCC 18804
Method in brief: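 Plates incubated 24 to 48 hours at 37° C, with yeast seeded at 0.5×10^3–2.5×10^3 CFU/milliliter final in RPMI 1640 (glutamine, phenol red indicator). MIC was read as the lowest peptide concentration showing no visible growth.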

[2] = tested on: Staphylococcus epidermidis ATCC 12228; assay: MIC, NCCLS M7-A6 broth microdilution (Table 9, no superscript); conditions: ATCC 12228
Method in brief: (§1)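 CAMHB microdilution; final inoculum 5×10^5–1×10^6 CFU/milliliter from log-phase culture; overnight, 37° C; MIC = lowest peptide conc. without visible growth (turbidity) vs no-peptide control.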

[3] = tested on: Pseudomonas aeruginosa ATCC 27853; assay: as above; conditions: ATCC 27853
Method in brief: as §1

[4] = tested on: Salmonella dublin (Lane); assay: as above
Method in brief: as §1

[5] = tested on: Escherichia coli ATCC 25922; assay: as above; conditions: ATCC 25922
Method in brief: as §1

[6] = tested on: Propionibacterium acnes ATCC 6919; assay: MIC, agar dilution method NCCLS M11-A6, Brucella agar, anaerobic (Table 9, superscript c); conditions: ATCC 6919
Method in brief: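 MIC taken as the lowest peptide level giving no colonies on the plate. Plates were inoculated to 1.5×10^8 CFU/milliliter, then kept anaerobically at 37° C. for 48-96 hours; method follows NCCLS M11-A6.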

[7] = tested on: Staphylococcus aureus ATCC 29213; assay: MIC, NCCLS M7-A6 broth microdilution, cation-adjusted Mueller Hinton broth (Table 9, no superscript); conditions: ATCC 29213
Method in brief: as §1

Row | SMILES | MIC C. albicans [1] | MIC S. epidermidis [2] | MIC P. aeruginosa [3] | MIC S. dublin [4] | MIC E. coli [5] | MIC P. acnes [6] | MIC S. aureus [7]
1 | CCCCCC(=O)NCCNC(=O)[C@H](CCCNC(=N)N)NC(=O)[C@H](CCSC)NC(=O)[C@H](Cc1ccccc1)NC(=O)[C@H](CC(N)=O)NC(=O)[C@H](CCCNC(=N)N)NC(=O)[C@H](C)NC(=O)[C@@H](NC(=O)[C@H](CC(=O)O)NC(=O)[C@H](CCCNC(=N)N)NC(=O)[C@H](Cc1c[nH]c2ccccc12)NC(=O)[C@H](CCCNC(=N)N)NC(=O)[C@H](CO)NC(=O)[C@@H](N)CCCNC(=N)N)C(C)C [Peptide 173, H2N-RSRWRDVARNFMR-Ethylamidohexanyl] (H-RSRWRDVARNFMR-{Ethylenediamine-Hexanoyl}; C-terminus assumed) | 64e ug/mL | 2 µg/mL (≈ 1.06 µM) | 16 µg/mL (≈ 8.46 µM) | 32 µg/mL (≈ 16.9 µM) | 8 µg/mL (≈ 4.23 µM) | >64c ug/mL | 16 µg/mL (≈ 8.46 µM)
2 | CCCCCCCCCCCC(=O)N[C@@H](C(=O)N[C@H](CCCNC(=N)N)C(=O)N[C@@H](C(=O)N[C@H](C)C(=O)N[C@H](CCCNC(=N)N)C(=O)N[C@@H](C(=O)NCC(=O)N[C@H](CCCNC(=N)N)C(=O)N[C@H](CO)C(=O)N[C@H](CCCNC(=N)N)C(=O)N[C@H](Cc1c[nH]c2ccccc12)C(=O)N[C@H](CCCNC(=N)N)C(=O)N[C@H](CC(=O)O)C(=O)N[C@@H](C(=O)N[C@H](C)C(=O)N[C@H](CCCNC(=N)N)C(=O)N[C@H](CC(N)=O)C(=O)N[C@H](Cc1ccccc1)C(=O)N[C@H](CCSC)C(=O)N[C@H](CCCNC(=N)N)C(N)=O)C(C)C)[C@H](C)O)C(C)C)[C@H](C)O [Peptide 78, Lauryl-trvartgrsrwrdvarnfmr-NH2] (Lauroyl-[dT][dR][dV][dA][dR][dT]G[dR][dS][dR][dW][dR][dD][dV][dA][dR][dN][dF][dM][dR]-NH2) | 8e ug/mL | 1 µg/mL (≈ 0.374 µM) | 8 µg/mL (≈ 2.99 µM) | 8 µg/mL (≈ 2.99 µM) | 8 µg/mL (≈ 2.99 µM) | 32c ug/mL | 8 µg/mL (≈ 2.99 µM)
3 | CCCCCCCCCCCC(=O)N[C@@H](CCCNC(=N)N)C(=O)N[C@@H](CO)C(=O)N[C@@H](CCCNC(=N)N)C(=O)N[C@@H](Cc1c[nH]c2ccccc12)C(=O)N[C@@H](CCCNC(=N)N)C(=O)N[C@@H](CC(=O)O)C(=O)N[C@H](C(=O)N[C@@H](C)C(N)=O)C(C)C [Peptide 102, Lauryl-RSRWRDVA-NH2] (Lauroyl-RSRWRDVA-NH2) | 64e ug/mL | 8 µg/mL (≈ 6.52 µM) | 64 µg/mL (≈ 52.2 µM) | >64 µg/mL | >64 µg/mL | >64c ug/mL | 4 µg/mL (≈ 3.26 µM)
4 | CCCCCCCCCCCC(=O)N[C@H](CCCNC(=N)N)C(=O)N[C@H](CO)C(=O)N[C@H](CCCNC(=N)N)C(=O)N[C@H](Cc1c[nH]c2ccccc12)C(=O)N[C@H](CCCNC(=N)N)C(=O)N[C@H](CC(=O)O)C(=O)N[C@@H](C(=O)N[C@H](C)C(=O)N[C@H](CCCNC(=N)N)C(N)=O)C(C)C [Peptide 118, Lauryl-rsrwrdvar-NH2] (Lauroyl-[dR][dS][dR][dW][dR][dD][dV][dA][dR]-NH2) | 32e ug/mL | 8 µg/mL (≈ 5.79 µM) | 32 µg/mL (≈ 23.1 µM) | >64 µg/mL | 64 µg/mL (≈ 46.3 µM) | 16c ug/mL | 8 µg/mL (≈ 5.79 µM)
5 | CCCCCCCCCCCC(=O)N[C@H](CCCNC(=N)N)C(=O)N[C@H](CO)C(=O)N[C@H](CCCNC(=N)N)C(=O)N[C@H](CC(C)C)C(=O)N[C@H](CCCNC(=N)N)C(=O)N[C@H](CC(=O)O)C(=O)N[C@H](CC(C)C)C(=O)N[C@H](CC(C)C)C(=O)N[C@H](CCCNC(=N)N)C(=O)N[C@H](CC(N)=O)C(=O)N[C@H](CC(C)C)C(=O)N[C@H](C)C(=O)N[C@H](CCCNC(=N)N)C(N)=O [Peptide 132, Lauryl-rsrlrdllrnlar-NH2] (Lauroyl-[dR][dS][dR][dL][dR][dD][dL][dL][dR][dN][dL][dA][dR]-NH2) | 4e ug/mL | 2 µg/mL (≈ 1.1 µM) | 32 µg/mL (≈ 17.6 µM) | 4 µg/mL (≈ 2.2 µM) | 4 µg/mL (≈ 2.2 µM) | 8c ug/mL | 4 µg/mL (≈ 2.2 µM)
6 | CCCCCCCCCCCC(=O)N[C@H](CCCNC(=N)N)C(=O)N[C@H](CO)C(=O)N[C@H](CCCNC(=N)N)C(=O)N[C@H](Cc1c[nH]c2ccccc12)C(=O)N[C@H](CCCNC(=N)N)C(=O)N[C@H](CC(=O)O)C(=O)N[C@@H](C(N)=O)C(C)C [Peptide 120, Lauryl-rsrwrdv-NH2] (Lauroyl-[dR][dS][dR][dW][dR][dD][dV]-NH2) | 64e ug/mL | 16 µg/mL (≈ 13.8 µM) | 64 µg/mL (≈ 55.4 µM) | >64 µg/mL | >64 µg/mL | 64c ug/mL | 16 µg/mL (≈ 13.8 µM)
7 | CCCCCCCCCCCC(=O)N[C@@H](CCCNC(=N)N)C(=O)N[C@@H](CO)C(=O)N[C@@H](CCCNC(=N)N)C(=O)N[C@@H](Cc1c[nH]c2ccccc12)C(=O)N[C@@H](CCCNC(=N)N)C(=O)N[C@@H](CC(=O)O)C(=O)N[C@@H](Cc1c[nH]c2ccccc12)C(=O)N[C@@H](C)C(=O)N[C@@H](CCCNC(=N)N)C(=O)N[C@@H](CC(N)=O)C(=O)N[C@@H](Cc1ccccc1)C(=O)N[C@@H](CCSC)C(=O)N[C@@H](CCCNC(=N)N)C(N)=O [Peptide 140, Lauryl-RSRWRDWARNFMR-NH2] (Lauroyl-RSRWRDWARNFMR-NH2) | 2e ug/mL | 2 µg/mL (≈ 0.991 µM) | 8 µg/mL (≈ 3.96 µM) | 4 µg/mL (≈ 1.98 µM) | 4 µg/mL (≈ 1.98 µM) | 16c ug/mL | 2 µg/mL (≈ 0.991 µM)

More lines, now with the values ahead:

Row | MIC C. albicans [1] | MIC S. epidermidis [2] | MIC P. aeruginosa [3] | MIC S. dublin [4] | MIC E. coli [5] | MIC P. acnes [6] | MIC S. aureus [7] | SMILES
8 | 16e ug/mL | 1 µg/mL (≈ 0.53 µM) | 4 µg/mL (≈ 2.12 µM) | 8 µg/mL (≈ 4.24 µM) | 2 µg/mL (≈ 1.06 µM) | 2c ug/mL | 2 µg/mL (≈ 1.06 µM) | CCCCCCCCCC(=O)N[C@H](CCCNC(=N)N)C(=O)N[C@H](CO)C(=O)N[C@H](CCCNC(=N)N)C(=O)N[C@H](Cc1c[nH]c2ccccc12)C(=O)N[C@H](CCCNC(=N)N)C(=O)N[C@H](CC(=O)O)C(=O)N[C@@H](C(=O)N[C@H](C)C(=O)N[C@H](CCCNC(=N)N)C(=O)N[C@H](CC(N)=O)C(=O)N[C@H](Cc1ccccc1)C(=O)N[C@H](CC(C)C)C(=O)N[C@H](CCCNC(=N)N)C(N)=O)C(C)C [Peptide 253, Decanyl-rsrwrdvarnflr-NH2] (Decanoyl-[dR][dS][dR][dW][dR][dD][dV][dA][dR][dN][dF][dL][dR]-NH2)
9 | 4e ug/mL | 2 µg/mL (≈ 1.01 µM) | 8 µg/mL (≈ 4.04 µM) | 32 µg/mL (≈ 16.1 µM) | 16 µg/mL (≈ 8.07 µM) | >64c ug/mL | 4 µg/mL (≈ 2.02 µM) | CCCCCCCCCCCC(=O)N[C@H](CCCNC(=N)N)C(=O)N[C@H](CCCCN)C(=O)N[C@H](CCCNC(=N)N)C(=O)N[C@H](Cc1c[nH]c2ccccc12)C(=O)N[C@H](CCCNC(=N)N)C(=O)N[C@H](CCCCN)C(=O)N[C@@H](C(=O)N[C@H](C)C(=O)N[C@H](CCCNC(=N)N)C(=O)N[C@H](CCCCN)C(=O)N[C@H](Cc1ccccc1)C(=O)N[C@H](CC(C)C)C(=O)N[C@H](CCCNC(=N)N)C(N)=O)C(C)C [Peptide 223, Lauryl-rkrwrkvarkflr-NH2] (Lauroyl-[dR][dK][dR][dW][dR][dK][dV][dA][dR][dK][dF][dL][dR]-NH2)
10 | 16e ug/mL | 2 µg/mL (≈ 1.13 µM) | 8 µg/mL (≈ 4.51 µM) | 8 µg/mL (≈ 4.51 µM) | 8 µg/mL (≈ 4.51 µM) | 2c ug/mL | 4 µg/mL (≈ 2.25 µM) | CCCCCCCCCCCC(=O)N[C@H](CO)C(=O)N[C@H](CCCNC(=N)N)C(=O)N[C@H](Cc1c[nH]c2ccccc12)C(=O)N[C@H](CCCNC(=N)N)C(=O)N[C@H](CC(=O)O)C(=O)N[C@@H](C(=O)N[C@H](C)C(=O)N[C@H](CCCNC(=N)N)C(=O)N[C@H](CC(N)=O)C(=O)N[C@H](Cc1ccccc1)C(=O)N[C@H](CCSC)C(=O)N[C@H](CCCNC(=N)N)C(N)=O)C(C)C [Peptide 131, Lauryl-srwrdvarnfmr-NH2] (Lauroyl-[dS][dR][dW][dR][dD][dV][dA][dR][dN][dF][dM][dR]-NH2)
